Patent US20250282820A1, “PEPTIDE COMPLEX HAVING TRKB BINDING ACTIVITY” (PEPTIDREAM INC, priority 2022, published 2025)
*1 amine or outer side, *2 acyl side, *3 side chain or, on linkers, in order; H or OH if unused. Where a SMILES comes first, the peptide text is derived from it. Bridges are numbered along the chain shown (N, C = ends). Roman numbers before positions name the chains, in order. [ ]: non-standard residue; d: D form. CO(CH2CH2O)13CH2CH2CO = O=C(CCOCCOCCOCCOCCOCCOCCOCCOCCOCCOCCOCCOCCOCCC(=O)[*:2])[*:1]; 3Pal = N[C@@H](Cc1cccnc1)C(=O)O

Experiments:
Assay in all cases: Surface plasmon resonance (SPR), Biacore T200, single cycle kinetics
Type in all cases: binding
[1] = target: T1, Recombinant Human TrkA Fc Chimera Protein (Homo sapiens, UniProt P04629); conditions: FIG. 4
T1 construct: purchased R&D Systems
T1 sequence (P04629 with tags, fused parts or gaps limits assumed): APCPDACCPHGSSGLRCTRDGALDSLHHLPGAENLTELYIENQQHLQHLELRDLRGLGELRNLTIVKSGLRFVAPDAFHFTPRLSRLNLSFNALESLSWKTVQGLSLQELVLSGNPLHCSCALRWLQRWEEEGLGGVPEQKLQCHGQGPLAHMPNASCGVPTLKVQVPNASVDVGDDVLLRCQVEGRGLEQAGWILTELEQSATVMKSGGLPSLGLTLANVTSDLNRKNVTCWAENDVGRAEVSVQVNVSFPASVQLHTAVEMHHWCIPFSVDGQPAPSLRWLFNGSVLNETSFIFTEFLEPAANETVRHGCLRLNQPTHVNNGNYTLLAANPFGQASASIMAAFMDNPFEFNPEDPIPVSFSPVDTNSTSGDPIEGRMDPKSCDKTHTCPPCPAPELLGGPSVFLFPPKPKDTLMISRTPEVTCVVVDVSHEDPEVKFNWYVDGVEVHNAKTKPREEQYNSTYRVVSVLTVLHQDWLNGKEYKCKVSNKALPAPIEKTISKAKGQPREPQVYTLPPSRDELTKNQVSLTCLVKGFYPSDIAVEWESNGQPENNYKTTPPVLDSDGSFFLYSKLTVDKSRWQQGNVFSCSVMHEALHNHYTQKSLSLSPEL
Experimental: (§1) A CM3 sensor chip (Cytiva) was inserted into a Biacore T200 (Cytiva). Three priming runs were performed using running buffer: HBS-EP+ (Cytiva). The system was then equilibrated at a flow rate of 30 μL/min. After mixing in 50 μL each of a 60 mM EDC solution (Cytiva) and 650 mM NHS solution (Cytiva), the reaction was performed at a flow rate of 10 μL/min for 420 seconds. Then, 135 μL of a 30 ng/μL anti-human IgG (Fc) antibody (Cytiva) solution was prepared by dilution with a 10 mM acetic acid solution (pH 5.0), and the anti-human IgG (Fc) antibody was immobilized on the CM3 sensor chip by reacting it at a flow rate of 10 μL/min for 360 seconds. After immobilization, capping was performed by reacting it with a 1.0M ethanolamine solution (Cytiva) at a flow rate of 10 μL/min for 420 seconds. Each 200 nM Recombinant Human TrkA Fc Chimera Protein, Recombinant Human TrkB Fc Chimera Protein, Recombinant Human TrkC Fc Chimera Protein (R&D Systems) solution was reacted with the immobilized antibody at a flow rate of 10 μL/min for 60 seconds. A liquid prepared by dissolving each peptide at 10 mM in DMSO solution was diluted with running buffer to prepare a peptide-dissolved solution at a final concentration of 10 μM. Subsequently, 50 nM, 25 nM, 12.5 nM, 5 nM, and 2.5 nM peptide solutions were prepared. Using the samples described above, the kinetics of peptide against TrkA, TrkB, and TrkC were obtained by SPR measurements. After reacting a peptide with TrkA, TrkB, and TrkC, regeneration was performed using a reaction with a 3M MgCl solution at 10 μL/min for 180 seconds.
(§2) The kinetic evaluation model was Single Cycle Kinetics, and curve fitting was performed using Biacore T200 Evaluation Software Version 3.0 (Cytiva). The binding of peptides to TrkA, TrkB, and TrkC was evaluated by performing least-squares curve fitting on the obtained sensorgrams and calculating their Kd values (dissociation constants).

[2] = target: T2, Recombinant Human TrkC Fc Chimera Protein (Homo sapiens, UniProt Q16288); conditions: FIG. 4
T2 construct: purchased R&D Systems
T2 sequence (Q16288 with tags, fused parts or gaps limits assumed): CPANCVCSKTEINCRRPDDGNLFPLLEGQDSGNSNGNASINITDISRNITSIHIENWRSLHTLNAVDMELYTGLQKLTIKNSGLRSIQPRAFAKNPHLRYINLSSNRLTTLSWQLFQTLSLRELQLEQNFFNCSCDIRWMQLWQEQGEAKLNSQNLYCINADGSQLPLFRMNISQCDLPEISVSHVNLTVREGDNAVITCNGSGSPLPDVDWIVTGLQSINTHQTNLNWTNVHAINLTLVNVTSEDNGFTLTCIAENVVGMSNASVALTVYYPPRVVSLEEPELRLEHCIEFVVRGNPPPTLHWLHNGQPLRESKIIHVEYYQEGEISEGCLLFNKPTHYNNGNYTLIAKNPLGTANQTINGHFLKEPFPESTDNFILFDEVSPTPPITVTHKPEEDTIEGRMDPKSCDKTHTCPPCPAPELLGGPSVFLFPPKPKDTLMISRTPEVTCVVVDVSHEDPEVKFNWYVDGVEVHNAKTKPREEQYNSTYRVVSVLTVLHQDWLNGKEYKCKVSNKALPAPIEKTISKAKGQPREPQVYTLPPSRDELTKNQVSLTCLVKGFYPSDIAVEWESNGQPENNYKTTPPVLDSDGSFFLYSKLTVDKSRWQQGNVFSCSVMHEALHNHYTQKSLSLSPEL
Experimental: as §1, §2

[3] = target: T3, Recombinant Human TrkB Fc Chimera Protein (Homo sapiens, UniProt Q16620); conditions: for Kd: calculated by employing the lower theoretical limit of 0.00001 (1/s) for koff, read-out: Kd (dissociation constant) of binding to TrkB
T3 construct: purchased R&D Systems
Experimental: as §1, §2

SMILES | binding to TrkA [1] | binding to TrkC [2] | koff (dissociation rate constant) of binding to TrkB [3] | Kd [3]
CC(C)[C@@H]1NC(=O)[C@H](Cc2cccnc2)NC(=O)[C@H](CCC(=O)O)NC(=O)[C@H](CO)NC(=O)[C@H](Cc2ccc(O)cc2)NC(=O)[C@H]([C@@H](C)O)NC(=O)[C@@H]2CCCN2C(=O)[C@H](Cc2c[nH]c3ccccc23)NC(=O)[C@H](Cc2cccnc2)NC(=O)[C@H](Cc2ccc(O)cc2)NC(=O)[C@@H]2CCCN2C(=O)[C@H](CO)NC(=O)[C@H](Cc2ccccc2)NC(=O)CSC[C@@H](C(=O)NCC(=O)N[C@@H](CCCCNC(=O)CCOCCOCCOCCOCCOCCOCCOCCOCCOCCOCCOCCOCCOCCC(=O)NCCCC[C@H](NC(=O)CNC(=O)[C@@H]2CSCC(=O)N[C@@H](Cc3ccccc3)C(=O)N[C@@H](CO)C(=O)N3CCC[C@H]3C(=O)N[C@@H](Cc3ccc(O)cc3)C(=O)N[C@@H](Cc3cccnc3)C(=O)N[C@@H](Cc3c[nH]c4ccccc34)C(=O)N3CCC[C@H]3C(=O)N[C@@H]([C@@H](C)O)C(=O)N[C@@H](Cc3ccc(O)cc3)C(=O)N[C@@H](CO)C(=O)N[C@@H](CCC(=O)O)C(=O)N[C@@H](Cc3cccnc3)C(=O)N[C@@H](C(C)C)C(=O)N[C@@H](CCC(=O)O)C(=O)N2)C(N)=O)C(N)=O)NC(=O)[C@H](CCC(=O)O)NC1=O [compound 48] (I: {CH2CO}-FSPY[3Pal]WPTYSE[3Pal]VECGK-NH2 / II: {CH2CO}-FSPY[3Pal]WPTYSE[3Pal]VECGK-NH2; linker I:17-II:17 via CO(CH2CH2O)13CH2CH2CO; thioether I:N-I:15, II:N-II:15) | no binding | no binding | exceeded the measurement limit | ≤ 0.1 nM
CC(C)[C@@H]1NC(=O)[C@H](Cc2cccnc2)NC(=O)[C@H](CCC(=O)O)NC(=O)[C@H](CO)NC(=O)[C@H](Cc2ccc(O)cc2)NC(=O)[C@H]([C@@H](C)O)NC(=O)[C@@H]2CCCN2C(=O)[C@H](Cc2c[nH]c3ccccc23)NC(=O)[C@H](Cc2cccnc2)NC(=O)[C@H](Cc2ccc(O)cc2)NC(=O)[C@@H]2CCCN2C(=O)[C@H](CCC(=O)O)NC(=O)[C@H](Cc2ccccc2)NC(=O)CSC[C@@H](C(=O)NCC(=O)N[C@@H](CCCCNC(=O)CCOCCOCCOCCOCCOCCOCCOCCOCCOCCOCCOCCOCCOCCC(=O)NCCCC[C@H](NC(=O)CNC(=O)[C@@H]2CSCC(=O)N[C@@H](Cc3ccccc3)C(=O)N[C@@H](CCC(=O)O)C(=O)N3CCC[C@H]3C(=O)N[C@@H](Cc3ccc(O)cc3)C(=O)N[C@@H](Cc3cccnc3)C(=O)N[C@@H](Cc3c[nH]c4ccccc34)C(=O)N3CCC[C@H]3C(=O)N[C@@H]([C@@H](C)O)C(=O)N[C@@H](Cc3ccc(O)cc3)C(=O)N[C@@H](CO)C(=O)N[C@@H](CCC(=O)O)C(=O)N[C@@H](Cc3cccnc3)C(=O)N[C@@H](C(C)C)C(=O)N[C@@H](CCC(=O)O)C(=O)N2)C(N)=O)C(N)=O)NC(=O)[C@H](CCC(=O)O)NC1=O [compound 56] (I: {CH2CO}-FEPY[3Pal]WPTYSE[3Pal]VECGK-NH2 / II: {CH2CO}-FEPY[3Pal]WPTYSE[3Pal]VECGK-NH2; linker I:17-II:17 via CO(CH2CH2O)13CH2CH2CO; thioether I:N-I:15, II:N-II:15) | no binding | no binding | exceeded the measurement limit | ≤ 0.1 nM
